Laboratory results: patent US10954287B2, “Ras binding peptides and methods of use” (Ra Pharmaceuticals, Inc., priority 2016, dated 2021)
Where two headings read alike, the source gives them in different places.

Assays:
[1] = target: T1, GST-tagged RAF-RBD and biotinylated H-Ras loaded with GMPPNP (Homo sapiens, UniProt P01112, G12V); experiment: TR-FRET of the interaction between GST-tagged RAF-RBD and biotinylated H-Ras; format: binding; conditions: 12.5 nM Bio-H-Ras GMPPNP, 10 nM GST-RAF-RBD, FIG. 8C
T1 construct: made in house; host or cells: E. coli BL21 (DE3)
Method: The interaction between GST-tagged RAF-RBD and biotinylated H-Ras (Bio-H-Ras) loaded with GMPPNP was detected using TR-FRET. Assays were performed in 384 well plates (Proxiplate-384 plus, Perkin Elmer, Waltham, Mass.). Bio-H-Ras GMPPNP was diluted in assay buffer (50 mM Tris-HCl, pH 7.5, 5 mM MgCl2, 0.0025% Tween-80, 1 mM DTT, and 50 nM GMPPNP) at a final concentration of 12.5 nM. R4000 was serially diluted in DMSO, then diluted in assay buffer and incubated with Bio-H-Ras GMPPNP for 30 minutes at room temperature (1% DMSO final). GST-RAF-RBD was added to the assay (10 nM final) and incubated 60 minutes at room temperature. Europium cryptate conjugated-anti-GST (donor; Perkin Elmer, Waltham, Mass.) and streptavidin conjugated to SureLight-Allophycocyanin (acceptor; Perkin Elmer, Waltham, Mass.) was added to the wells at final concentrations of 1 nM and 1.25 nM, respectively. Reaction mixtures were incubated at room temperature for 2 hours then detected using an EnVision Multilabel Plate Reader (Perkin Elmer, Waltham, Mass.) with excitation at 340 nm and emission at 615 nm (donor) and 665 nm (acceptor). FRET ratios (615 emission/665 emission) were calculated per well. Data was analyzed using GraphPad Prism, and IC50 values were generated by fitting dose response data to a 4 parameter fit sigmoidal dose response curve. […]

[2] = target: T2, SOS^cat catalyzed nucleotide exchange of H-Ras-GDP (Homo sapiens, UniProt P01112, G12V); experiment: SOS-mediated nucleotide exchange (MANT-GMPPNP fluorescence); format: biochemical; conditions: 25 μM of R4000, 1 μM H-Ras-GDP, 2 μM SOS^cat
T2 construct: made in house; host or cells: E. coli BL21 (DE3)
Method: A sequence encoding the Ras exchanger motif and Cdc25 domains of human guanine nucleotide exchange factor SOS1 (amino acids 564-1049, designated as SOS^cat hereafter) was synthesized at GeneArt (Life Technologies, Carlsbad, Calif.) and subcloned into the pET28a expression vector (Novagen, Darmstadt, Germany) for expression in E. coli. The identity of the expression construct was confirmed by DNA sequencing. The plasmid encoding SOS^cat was transformed into BL21 (DE3). Cells were grown at 37° C. to an absorbance of 0.5 (OD600) in LB media containing 25 μg/mL of kanamycin and then transferred to 20° C. prior to induction with 0.1 mM IPTG. Cells were harvested 15 hours after induction and the pellet was lysed with B-PER Bacteria Extraction Reagent (Pierce/Thermo Scientific, Rockford, Ill.) containing EDTA-free protease inhibitors. […]
The SOS^cat protein was then dialysed into a buffer containing 25 mM Tris-HCl, pH 7.5, 150 mM NaCl, 5 mM MgCl2, and 1 mM DTT and stored at −80° C. […] Changes in fluorescence were measured by a fluorescence spectrometer (SpectraMax M3; Molecular Devices) in a black 96 half-area well plate (Corning 3686). Fluorescence was excited at λ=370 nm and emission was monitored at λ=450 nm every 20 s for over 30 minutes at 22° C. The nucleotide exchange rates were expressed as Vmax (milli-units per minute).

[3] = Compound stability in rat plasma; format: in vitro ADME; conditions: serum (method text and assay name say plasma), 37° C., pH 7.4
Method: Compounds were assayed for stability in mouse and rat plasma under the following conditions. Plasma was adjusted to pH 7.4. DMSO stocks at 10 mM concentration were prepared for the test compounds. Aliquots of the DMSO solutions were dosed into 1 mL of plasma, which had been pre-warmed to 37° C., at a final test compound concentration of 10 μM. The vials were kept in a benchtop Thermomixer® (Eppendorf, Hauppauge, N.Y.) for the duration of the experiment. Aliquots (100 μL) were taken at each timepoint and added to a 96-well plate that had been pre-filled with 300 μL of an acetonitrile solution containing mixture of the internal standards (metoprolol, propranalol and warfarin each at 500 ng/mL). Samples were stored at 4° C. until the end of the experiment. After the final timepoint was sampled, the plate was mixed and then centrifuged at 3,000 rpm for 10 minutes. Aliquots of the supernatant were removed and analyzed by LC-HRAMS.

K-Ras G12D = target: T3, K-Ras G12D (Homo sapiens, UniProt P01116, G12D); experiment: Surface plasmon resonance (SPR) binding to immobilized K-Ras; conditions: for Kd / kd / kon: 25° C.; for kon: read-out: ka
T3 construct: For K-Ras, the construct was full-length; made in house
Method: Surface Plasmon Resonance (SPR) experiments were conducted at 25° C. using the ProteOn XPR36 system from BioRad Laboratories, Inc (Hercules, Calif.). […] Kinetic characterization of cyclomimetic binding was performed to determine kon, koff, and Kd. […] was co-injected with RAF-RBD to evaluate competitive binding. Data analysis was performed using BioRad ProteOn Manager software.

In the case of `CCC[C@H](NC(C)=O)C(=O)N[C@H]1CSCc2cccc(c2)CSC[C@@H](C(N)=O)NC(=O)CN(C)C(=O)[C@H](Cc2ccc(F)cc2)N(C)C(=O)[C@H](Cc2ccc(O)cc2)NC(=O)[C@H](Cc2c[nH]c3ncccc23)NC(=O)[C@H](c2ccccc2)NC(=O)[C@H](C)N(C)C(=O)[C@H](Cc2cnc[nH]2)NC(=O)[C@H](CCCCN)NC(=O)[C@H](C(C)(C)C)NC(=O)[C@H](Cc2ccc(O)cc2)NC1=O` (relative stereo) [Compound R4000, ACE-NVA-CYS*-TYR-TBG-LYS-HIS-NMA-PHG-7AW-TYR-MFF-SAR-CYS*-NH2], the “blocking of H-Ras binding to RAF” value [1] is reported as “does not block binding to RAF”, the “effect on the rate of SOS catalyzed nucleotide exchange” value [2] is reported as “does not effect the rate of exchange” and the half-life at 10 μM [3] is reported as 2.1 h. It also gave a Kd (K-Ras G12D; K-Ras G12D loaded with GDP) of 4.4 nM, a kd (K-Ras G12D; K-Ras G12D loaded with GDP) of 0.003 s⁻¹ and a kon (K-Ras G12D; K-Ras G12D loaded with GDP) of 680000 M⁻¹ s⁻¹. It also gave a Kd (K-Ras G12D; K-Ras G12D loaded with GMPPNP) of 2.8 nM, a kd (K-Ras G12D; K-Ras G12D loaded with GMPPNP) of 0.0016 s⁻¹ and a kon (K-Ras G12D; K-Ras G12D loaded with GMPPNP) of 570000 M⁻¹ s⁻¹. The “competitive binding on co-injection with RAF-RBD” value (K-Ras G12D; R4000 co-injected with RAF-RBD, FIG. 7A) was “additive signals”.
